Results from publication PMC5075052, “Modulation of the Substitution Pattern of 5-Aryl-2-Aminoimidazoles Allows Fine-Tuning of Their Antibiofilm Activity Spectrum and Toxicity” (Antimicrobial Agents and Chemotherapy, 2016).
Like-named read-outs stand apart in the source and are kept apart here.

Key:
[1] = test system: S. liquefaciens MG44; experiment: Monospecies bacterial biofilm inhibition, static peg assay; assay type: cell-based, Serratia liquefaciens; details: Serratia liquefaciens
Description: (§1) A static peg assay, described previously ([27], [74]), was used for bacterial biofilm formation. The Calgary biofilm device consists of a platform carrying 96 polystyrene pegs (Nunc no. 445497) that fits as a microtiter plate lid, with 1 peg hanging into each microtiter plate well (Nunc no. 269789). Twofold serial dilutions of the compounds (dissolved in 100% dimethyl sulfoxide [DMSO] or ethanol) in 100 μl liquid broth (TSB diluted 1/20) per well were prepared in the microtiter plate in duplicate or triplicate with a maximum concentration of 1,600 μM and a minimum concentration of 0.8 μM. Subsequently, an overnight culture of S. Typhimurium ATCC 14028, P. aeruginosa PA14, E. coli TG1, S. epidermidis, S. aureus SH1000, or S. aureus ATCC 6538 (all grown in LB) was diluted 1:100 into TSB diluted 1/20 (or TSB for S. epidermidis, S. aureus SH1000, and S. aureus ATCC 6538), whereas overnight cultures of S. liquefaciens MG44 and B. cepacia LMG1222T were diluted 1:50 into TSB diluted 1/20. P. gingivalis ATCC 33277 cultures were diluted in TSB diluted 1/20 to have a final concentration of 1 × 10^8 cells/ml. Next, 100 μl was added to each well of the microtiter plate, resulting in a total volume of 200 μl medium per well (final concentration range of compounds, 800 μM [2% DMSO or ethanol] to 0.4 μM [0.001% DMSO or ethanol]). In the next step, the pegged lid was placed on the microtiter plate and the plate was incubated for 24 h or 48 h at 25°C or 37°C without shaking. At 37°C, the plates were placed in a sealed container with wet towels on the bottom to prevent evaporation of the growth medium. Biofilms of P. gingivalis ATCC 33277 were grown anaerobically at 37°C for 72 h. During this incubation period, biofilms were formed on the surface of the pegs. After incubation, the optical density at 600 nm (OD600) for the planktonic cells in the microtiter plate was measured using a Synergy MX multimode reader (BioTek, Winooski, VT). This gives a first indication of the effect of the compounds on planktonic growth. For quantification of biofilm formation, the pegs were washed once in 200 μl PBS. The remaining attached bacteria were stained for 30 min with 200 μl 0.1% (wt/vol) crystal violet in an isopropanol-methanol-PBS solution (1:1:18, vol/vol). Excess stain was rinsed off by placing the pegs in a 96-well plate filled with 200 μl distilled water per well. After air drying of the pegs (30 min), the dye bound to the adherent biofilm was extracted with 30% glacial acetic acid (200 μl per well of a 96-well plate). The optical density at 570 nm (OD570) of each well was measured using a Synergy MX multimode reader (BioTek, Winooski, VT). The concentration of each compound needed to inhibit biofilm formation by 50% (BIC50) and the concentration of each compound needed to inhibit planktonic growth by 50% (IC50) were determined from the concentration gradient by using nonlinear curve fitting (GraphPad Prism software, version 5; GraphPad Software, Inc., La Jolla, CA). In the same assay, the effect on planktonic growth was evaluated. The activity was considered biofilm specific if the BIC50 was at least two times lower than the IC50. Data represent the means from at least 3 technical repeats with the corresponding 95% confidence intervals (provided in the supplemental material).

[2] = test system: C. albicans SC5314; experiment: Inhibition of C. albicans biofilms, CellTiter-Blue quantification; assay type: cell-based, Candida albicans; details: Candida albicans; C. albicans SC5314, 37°C, CTB method; read-out: BIC50 (μM) for C. albicans SC5314 (37°C)
Description: The potential of the compounds to prevent C. albicans SC5314 biofilm formation was assessed using the CellTiter-Blue (CTB) quantification method ([75]). […]. Twofold serial dilutions of the compounds (dissolved in 100% DMSO or ethanol) in 100 μl RPMI 1640 medium per well were prepared in a round-bottom polystyrene 96-well microtiter plate (TPP; Trasadingen, Switzerland) in duplicate or triplicate with a maximum concentration of 1,600 μM and a minimum concentration of 0.8 μM. One hundred microliters of the cell suspension was added to each well of the microtiter plate, resulting in a total volume of 200 μl medium per well (final concentration range of compounds, 800 μM [2% DMSO or ethanol] to 0.4 μM [0.001% DMSO or ethanol]). After 16 h of static incubation at 37°C, the biofilms were washed and quantified by the CTB method as described previously ([73]).

[3] = test system: B. cepacia LMG1222T; experiment: Monospecies bacterial biofilm inhibition, static peg assay; assay type: cell-based, Burkholderia cepacia; details: Burkholderia cepacia, 25°C
Description: as §1

[4] = test system: S. aureus SH1000; experiment: as above; assay type: cell-based, Staphylococcus aureus
Description: as §1

[5] = test system: P. gingivalis ATCC 33277; experiment: Monospecies bacterial biofilm inhibition, static peg assay (anaerobic, 72 h); assay type: cell-based; details: Porphyromonas gingivalis, ATCC33277, P. gingivalis ATCC 33277, 37°C
Description: as §1

[6] = test system: osteoblasts (OB); experiment: Mammalian cell viability assay, trypan blue staining; assay type: cell-based; details: 12.5 μM, 6 days of exposure
Description: The viability of two human primary cell types, namely, osteoblasts (OB) and bone marrow-derived mesenchymal stem cells (MSC), was tested according to the ISO 10993-5 standard, as previously described ([76]). Briefly, cells were seeded in 96-well tissue culture test plates (TPP; Trasadingen, Switzerland) at 5 × 10^3 cells/cm^2 in cell culture medium (advanced Dulbecco modified Eagle's medium [DMEM]) supplemented with 10% serum, 1× GlutaMAX, and 0.05 mg/ml gentamicin and were allowed to attach overnight. On the next day, the cells were exposed to (i) cell culture medium and medium with the corresponding control (0.5% ethanol or DMSO; negative controls), (ii) medium with 0.05% phenol (cytotoxic control), and (iii) medium with compounds (12.5 μM) and incubated for 2 h, 48 h, and 6 days (8 repeats for each condition). At each time point, the numbers of viable and dead cells were determined directly by trypan blue staining and indirectly by measuring metabolic activity with 3-(4,5-dimethylthiazol-2-yl)-2,5-diphenyltetrazolium bromide (MTT) staining.
The medium was removed from the wells, 1/3 trypan blue in DMEM was added to the cells, and the cells were incubated for 3 min, after which the trypan blue was removed and DMEM was added to the wells. In each of four wells, two microscopy fields were counted for viable (transparent) and dead (blue) cells.

[7] = S. liquefaciens MG44, 25°C, read-out: BIC50
[8] = S. liquefaciens MG44, 25°C, read-out: IC50 (planktonic growth)
[9] = read-out: IC50 (planktonic growth)
[10] = Staphylococcus aureus, SH1000, S. aureus SH1000, 37°C, read-out: BIC50
[11] = Staphylococcus aureus, SH1000, S. aureus SH1000, 37°C, read-out: IC50 (planktonic growth)

| IC50 [2] | Structure (SMILES) | IC50 [1, 7] | IC50 [1, 8] | IC50 ([3]; read-out: BIC50) | IC50 [3, 9] | IC50 [4, 10] | IC50 [4, 11] | IC50 ([5]; read-out: BIC50) | IC50 [5, 9] | IC50 ([4]; S. aureus SH1000, 37°C, read-out: BIC50) | IC50 ([1]; MG44, read-out: BIC50) | IC50 ([1]; MG44, read-out: IC50 (planktonic growth)) | proliferation of OB (trypan blue) [6] | viability of OB (trypan blue) [6] |
| --- | --- | --- | --- | --- | --- | --- | --- | --- | --- | --- | --- | --- | --- | --- |
| 9.3 µM | CCCCCCCCn1c(-c2ccccc2)cnc1NCC(C)C [Compound 8a] |  |  |  |  |  |  |  |  |  |  |  | slightly reduced |  |
| 11 µM | CCCCCCCCn1c(-c2ccc(Cl)cc2)cnc1NCC(C)C [Compound 8b] |  |  |  |  |  |  |  |  |  |  |  |  |  |
| > 100 µM | CCCCCCCCn1c(-c2ccc(Br)cc2)cnc1NCC(C)C [Compound 8c] |  |  |  |  |  |  |  |  |  |  |  | increase in proliferation | very slightly reduced |
| > 100 µM | CCCCCCCCn1c(-c2ccc(Cl)c(Cl)c2)cnc1NCC(C)C [Compound 8d] |  |  |  |  |  |  |  |  |  |  |  | increase in proliferation |  |
| > 100 µM | CCCCCCCCn1c(-c2ccc(Cl)c(Cl)c2)cnc1NC1CCCC1 [Compound 8h] |  |  |  |  |  |  |  |  |  |  |  | increase in proliferation |  |

The next lines start with the compound.

| Structure (SMILES) | IC50 [2] | IC50 [1, 7] | IC50 [1, 8] | IC50 ([3]; read-out: BIC50) | IC50 [3, 9] | IC50 [4, 10] | IC50 [4, 11] | IC50 ([5]; read-out: BIC50) | IC50 [5, 9] | IC50 ([4]; S. aureus SH1000, 37°C, read-out: BIC50) | IC50 ([1]; MG44, read-out: BIC50) | IC50 ([1]; MG44, read-out: IC50 (planktonic growth)) | proliferation of OB (trypan blue) [6] | viability of OB (trypan blue) [6] |
| --- | --- | --- | --- | --- | --- | --- | --- | --- | --- | --- | --- | --- | --- | --- |
| CCCCCn1c(-c2ccccc2)cnc1N [Compound 1] | 145 µM | 168 µM | 177 µM | ~356 µM | > 400 µM | 163 µM | > 400 µM | 13.2 µM | 32.1 µM |  |  |  |  |  |
| CCCCCCCCn1c(-c2ccc(Cl)cc2)cnc1N [Compound 2] | 6.2 µM | 18.8 µM | 38 µM | 145 µM | > 400 µM | 2 to 6 µM | 8.3 µM | 3.9 µM | 6 µM | 3.4 µM |  |  |  |  |
| CC(C)CNc1ncc(-c2ccc(Cl)cc2)[nH]1 [Compound 3] | 93.9 µM |  |  | 88.1 µM | > 400 µM | 200 µM | 175 µM | 5.3 µM | 5.1 µM |  | 10.4 µM | 154 µM |  |  |
| CCCCNc1ncc(-c2ccc(Br)cc2)[nH]1 [Compound 4] | 66.7 µM | 4.4 µM | 118 µM | 189 µM | > 400 µM | 66.5 µM | 89.4 µM | 3.7 µM | 8.2 µM |  |  |  |  |  |
| Clc1ccc(-c2cnc(NC3CCCC3)[nH]2)cc1 [Compound 5] | 64 µM | 8.8 µM | 125 µM | 331 µM | > 400 µM | 70.6 µM | 71.5 µM | 5.7 µM | 4 µM |  |  |  |  |  |
| Brc1ccc(-c2cnc(NCCn3cc(C4CC4)nn3)[nH]2)cc1 [Compound 6] | > 400 µM | 63.3 µM | > 400 µM | > 400 µM | > 400 µM | > 400 µM | > 400 µM | 18.1 µM | 19.5 µM |  |  |  |  |  |
| CCCCCCCCn1c(-c2ccccc2)cnc1NC1CCCC1 [Compound 8e] | ~11.9 µM |  |  |  |  |  |  |  |  |  |  |  | slightly reduced |  |
| CCCCCCCCn1c(-c2ccc(Cl)cc2)cnc1NC1CCCC1 [Compound 8f] | 8.9 µM |  |  |  |  |  |  |  |  |  |  |  |  |  |
| CCCCCCCCn1c(-c2ccc(Br)cc2)cnc1NC1CCCC1 [Compound 8g] | 21.1 µM |  |  |  |  |  |  |  |  |  |  |  | increase in proliferation |  |
